Measurements: ChEMBL document CHEMBL1201862, “PubChem BioAssay data set” (2004)
Calls of active or inactive are those of the source.

How the values were obtained:
[1] = off-target signal loss in HeLa-CEM21 co-culture – HeLa F-luc CTL cells, cherry-picked, counter-screen for HIV-1 Env fusion inhibitor project, dose response (AID 652040); format: functional, cell-based;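 further: potency for signal decrease marking cytotoxic or nonspecific inhibition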
[2] = inhibitors of clade B AD8 Env fusion, dose response, cell-based, cherry-pick (AID 652062); format: functional;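 further: luciferase signal from cell-cell fusion driven by HIV-1 clade B AD8 Env; potency is for inhibitors of fusion seen as a drop in luminescence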
[3] = ZM109 Env clade C HIV-1 fusion inhibitors, dose response, HeLa effector, CEM target cells, luciferase, cherry-pick (AID 652058); format: functional, cell-based
[4] = inhibitors of HIV Env-driven cell fusion, dose response, cherry-pick (AID 652057); format: functional, cell-based
[5] = Shn3 3'UTR reporter inhibitors, dose response, cell-based, Clone20 osteoblasts, firefly luciferase, cherry-picked (AID 624132); format: functional;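 further: firefly luciferase luminescence from reporter carrying the Shn3 3'UTR in osteoblasts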
[6] = molecular target: T1, Histone-lysine N-methyltransferase NSD2 (Homo sapiens, UniProt O96028); format: biochemical
T1 sequence (O96028 whole entry): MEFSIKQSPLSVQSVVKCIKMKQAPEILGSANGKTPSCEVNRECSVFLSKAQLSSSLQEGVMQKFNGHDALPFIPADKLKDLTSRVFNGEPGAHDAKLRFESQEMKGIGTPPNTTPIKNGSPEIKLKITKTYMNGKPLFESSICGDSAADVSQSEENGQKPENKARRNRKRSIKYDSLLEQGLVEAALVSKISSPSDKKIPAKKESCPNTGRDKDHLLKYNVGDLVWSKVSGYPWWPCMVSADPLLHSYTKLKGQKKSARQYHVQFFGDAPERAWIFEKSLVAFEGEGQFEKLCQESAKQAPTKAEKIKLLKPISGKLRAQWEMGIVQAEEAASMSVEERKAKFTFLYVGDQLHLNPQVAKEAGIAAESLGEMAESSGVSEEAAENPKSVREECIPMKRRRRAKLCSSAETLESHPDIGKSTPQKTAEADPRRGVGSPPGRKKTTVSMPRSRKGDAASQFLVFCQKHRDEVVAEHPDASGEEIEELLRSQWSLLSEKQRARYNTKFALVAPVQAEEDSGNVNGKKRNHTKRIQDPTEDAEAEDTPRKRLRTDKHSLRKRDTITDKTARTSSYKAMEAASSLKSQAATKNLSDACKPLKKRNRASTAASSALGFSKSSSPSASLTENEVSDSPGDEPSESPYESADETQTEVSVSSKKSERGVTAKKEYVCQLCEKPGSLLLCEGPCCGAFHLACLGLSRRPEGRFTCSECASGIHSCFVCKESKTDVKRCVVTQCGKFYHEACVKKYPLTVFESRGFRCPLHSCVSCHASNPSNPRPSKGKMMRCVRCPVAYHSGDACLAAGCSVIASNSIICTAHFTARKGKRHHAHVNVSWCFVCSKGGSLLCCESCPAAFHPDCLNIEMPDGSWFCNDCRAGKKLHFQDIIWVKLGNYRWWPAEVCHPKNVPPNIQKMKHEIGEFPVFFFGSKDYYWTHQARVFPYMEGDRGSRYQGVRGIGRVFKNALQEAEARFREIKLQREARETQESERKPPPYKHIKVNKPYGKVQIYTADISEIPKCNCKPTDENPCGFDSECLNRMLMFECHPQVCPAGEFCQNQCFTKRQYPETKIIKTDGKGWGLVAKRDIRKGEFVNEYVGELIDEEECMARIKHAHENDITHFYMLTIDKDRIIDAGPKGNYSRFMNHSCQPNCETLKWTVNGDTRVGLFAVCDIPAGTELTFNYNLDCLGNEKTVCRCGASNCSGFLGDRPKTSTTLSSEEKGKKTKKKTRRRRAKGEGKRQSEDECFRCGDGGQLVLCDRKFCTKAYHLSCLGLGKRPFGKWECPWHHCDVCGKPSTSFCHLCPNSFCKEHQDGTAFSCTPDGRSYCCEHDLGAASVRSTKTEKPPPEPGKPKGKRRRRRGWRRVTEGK

[7] = molecular target: T2, Fatty acid synthase (Homo sapiens, UniProt P49327); assay: FAS thioesterase domain inhibitors, dose response, biochemical, endpoint fluorescence intensity, uHTS hits (AID 624327); format: functional;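 further: fluorescence from hydrolysis of an O-methyl fluorescein acyl ester substrate by the enzyme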
[8] = molecular target: T2, Fatty acid synthase; assay: FAS thioesterase domain inhibitors, dose response, biochemical, kinetic fluorescence intensity (AID 624326); format: functional;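 further: rate of fluorescence rise from hydrolysis of a fluorogenic O-methyl fluorescein ester substrate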
[9] = cells; format: functional
[10] = molecular target: Large T antigen (Simian virus 40, UniProt P03070); format: functional, Betapolyomavirus macacae;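 further: Confirmatory-stage PubChem screen for compounds that inhibit SV40 T antigen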
[11] = Luminescence Cell-Based Dose Confirmation HTS to Identify Activators of 5'UTR Stem-Loop Driven Alpha-Synuclein mRNA Translation in H4 Neuroglioblastoma Cells. [Related pubchem assays: 1829 (Project Summary), 1814 (Primary HTS)]; format: functional
[12] = system: H4; assay: Luminescence Cell-Based Dose Response HTS to Identify Activators of 5'UTR Stem-Loop Driven Prion Protein mRNA Translation in H4 Neuroglioblastoma Cells. [Related pubchem assays: 1829 (Project Summary), 1814 (Primary HTS)]; format: functional; conditions: Homo sapiens
[13] = Luminescence Cell-Based Dose Response HTS to Identify Activators of Luciferase Translation or Activity in H4 […] Cells. [Related pubchem assays: 1829 (Project Summary), 1814 (Primary HTS)]; format: functional
[14] = molecular target: T3, Replicative DNA helicase DnaB (Mycobacterium tuberculosis, UniProt P9WMR3); assay: DnaB intein splicing inhibitors, dose response, biochemical, cell-free fluorescence (AID 449749); format: functional
T3 sequence (P9WMR3 whole entry): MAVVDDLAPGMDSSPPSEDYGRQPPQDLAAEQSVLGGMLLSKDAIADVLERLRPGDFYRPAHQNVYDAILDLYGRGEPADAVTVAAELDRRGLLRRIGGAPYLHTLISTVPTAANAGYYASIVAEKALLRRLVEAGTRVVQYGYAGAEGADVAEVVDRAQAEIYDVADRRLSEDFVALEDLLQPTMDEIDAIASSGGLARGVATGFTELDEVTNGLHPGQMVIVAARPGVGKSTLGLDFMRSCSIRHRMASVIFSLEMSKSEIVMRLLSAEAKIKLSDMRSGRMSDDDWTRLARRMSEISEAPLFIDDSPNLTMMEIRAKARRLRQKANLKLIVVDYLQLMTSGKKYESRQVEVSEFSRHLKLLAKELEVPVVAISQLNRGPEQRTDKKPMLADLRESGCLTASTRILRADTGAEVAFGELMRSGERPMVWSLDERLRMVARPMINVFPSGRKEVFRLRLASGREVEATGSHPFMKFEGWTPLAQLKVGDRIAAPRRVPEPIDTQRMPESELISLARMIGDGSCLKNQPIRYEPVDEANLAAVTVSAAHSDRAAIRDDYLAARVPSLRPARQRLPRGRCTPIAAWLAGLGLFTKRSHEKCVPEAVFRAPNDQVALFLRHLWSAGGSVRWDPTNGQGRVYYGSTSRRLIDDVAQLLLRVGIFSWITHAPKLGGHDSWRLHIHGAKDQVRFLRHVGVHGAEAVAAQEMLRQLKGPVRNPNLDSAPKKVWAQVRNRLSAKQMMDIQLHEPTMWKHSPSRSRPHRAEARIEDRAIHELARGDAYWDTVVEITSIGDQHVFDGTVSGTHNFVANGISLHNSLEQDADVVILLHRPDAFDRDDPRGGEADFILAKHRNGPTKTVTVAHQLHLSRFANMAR

[15] = molecular target: T4, Protein RecA (Mycobacterium tuberculosis, UniProt P9WHJ3); assay: Fluorescence Cell-Free Homogeneous Dose Retest to Identify Inhibitors of RecA-Intein Splicing Activity. [Related pubchem assays (depositor defined):AID2097, AID2223, AID489010, AID492950]; format: functional
T4 sequence (P9WHJ3 whole entry): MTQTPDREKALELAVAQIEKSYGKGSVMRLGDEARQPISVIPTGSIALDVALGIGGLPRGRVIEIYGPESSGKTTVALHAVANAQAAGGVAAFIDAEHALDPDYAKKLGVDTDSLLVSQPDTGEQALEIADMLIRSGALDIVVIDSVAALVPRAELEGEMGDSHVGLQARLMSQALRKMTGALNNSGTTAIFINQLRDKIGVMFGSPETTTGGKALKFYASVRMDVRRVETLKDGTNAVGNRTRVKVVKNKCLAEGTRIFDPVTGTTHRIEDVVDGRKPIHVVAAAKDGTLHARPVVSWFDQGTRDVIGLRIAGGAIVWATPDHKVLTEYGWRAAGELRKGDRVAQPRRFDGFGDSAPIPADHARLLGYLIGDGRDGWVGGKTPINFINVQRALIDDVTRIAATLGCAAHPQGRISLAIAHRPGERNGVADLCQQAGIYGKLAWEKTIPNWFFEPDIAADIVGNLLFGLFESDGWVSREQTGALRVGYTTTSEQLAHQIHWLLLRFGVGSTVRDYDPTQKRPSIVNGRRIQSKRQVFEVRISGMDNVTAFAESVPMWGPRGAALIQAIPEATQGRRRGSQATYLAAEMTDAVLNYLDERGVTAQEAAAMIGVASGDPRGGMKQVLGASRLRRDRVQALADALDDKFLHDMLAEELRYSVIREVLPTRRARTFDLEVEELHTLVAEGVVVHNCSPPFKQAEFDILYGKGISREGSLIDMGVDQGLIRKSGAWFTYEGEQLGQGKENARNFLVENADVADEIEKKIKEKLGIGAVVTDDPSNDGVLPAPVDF

[16] = molecular target: T5, Rac GTPase-activating protein 1 (Homo sapiens, UniProt Q9H0H5); assay: MgcRacGAP GTPase-activating activity inhibitors, confirmation, biochemical, ADP Hunter fluorescence, primary and confirmatory (AID 624330); format: functional
T5 sequence (Q9H0H5 whole entry): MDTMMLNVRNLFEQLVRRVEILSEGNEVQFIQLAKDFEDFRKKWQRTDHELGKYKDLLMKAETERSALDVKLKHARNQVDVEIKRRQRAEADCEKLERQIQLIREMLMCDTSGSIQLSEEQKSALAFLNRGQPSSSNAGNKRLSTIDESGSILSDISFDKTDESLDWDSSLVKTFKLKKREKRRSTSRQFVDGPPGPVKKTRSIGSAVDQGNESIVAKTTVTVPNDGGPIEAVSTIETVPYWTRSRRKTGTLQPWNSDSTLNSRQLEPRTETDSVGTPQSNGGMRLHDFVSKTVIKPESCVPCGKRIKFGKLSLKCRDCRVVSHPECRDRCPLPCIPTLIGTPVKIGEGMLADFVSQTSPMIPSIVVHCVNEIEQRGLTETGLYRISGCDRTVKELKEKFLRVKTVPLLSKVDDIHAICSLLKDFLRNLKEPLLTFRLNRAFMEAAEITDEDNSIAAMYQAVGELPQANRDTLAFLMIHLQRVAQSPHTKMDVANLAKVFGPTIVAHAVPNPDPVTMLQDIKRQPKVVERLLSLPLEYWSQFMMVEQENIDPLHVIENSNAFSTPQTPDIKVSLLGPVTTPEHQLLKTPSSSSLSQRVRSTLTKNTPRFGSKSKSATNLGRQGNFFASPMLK

[17] = molecular target: FAD-linked sulfhydryl oxidase ALR (Homo sapiens, UniProt P55789); assay: inhibitors of human ALR sulfhydryl oxidase, dose response, biochemical, H2O2 detection, luminescence, cherry-pick (AID 493248)
FAD-linked sulfhydryl oxidase ALR, sequence (P55789 whole entry): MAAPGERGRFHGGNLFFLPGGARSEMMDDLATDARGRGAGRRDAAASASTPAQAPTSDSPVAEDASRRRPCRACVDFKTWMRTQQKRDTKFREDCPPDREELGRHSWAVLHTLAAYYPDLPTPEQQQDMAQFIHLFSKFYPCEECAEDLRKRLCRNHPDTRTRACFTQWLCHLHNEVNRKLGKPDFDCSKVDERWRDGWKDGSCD

T2 sequence (P49327 whole entry, the tested form may be a part): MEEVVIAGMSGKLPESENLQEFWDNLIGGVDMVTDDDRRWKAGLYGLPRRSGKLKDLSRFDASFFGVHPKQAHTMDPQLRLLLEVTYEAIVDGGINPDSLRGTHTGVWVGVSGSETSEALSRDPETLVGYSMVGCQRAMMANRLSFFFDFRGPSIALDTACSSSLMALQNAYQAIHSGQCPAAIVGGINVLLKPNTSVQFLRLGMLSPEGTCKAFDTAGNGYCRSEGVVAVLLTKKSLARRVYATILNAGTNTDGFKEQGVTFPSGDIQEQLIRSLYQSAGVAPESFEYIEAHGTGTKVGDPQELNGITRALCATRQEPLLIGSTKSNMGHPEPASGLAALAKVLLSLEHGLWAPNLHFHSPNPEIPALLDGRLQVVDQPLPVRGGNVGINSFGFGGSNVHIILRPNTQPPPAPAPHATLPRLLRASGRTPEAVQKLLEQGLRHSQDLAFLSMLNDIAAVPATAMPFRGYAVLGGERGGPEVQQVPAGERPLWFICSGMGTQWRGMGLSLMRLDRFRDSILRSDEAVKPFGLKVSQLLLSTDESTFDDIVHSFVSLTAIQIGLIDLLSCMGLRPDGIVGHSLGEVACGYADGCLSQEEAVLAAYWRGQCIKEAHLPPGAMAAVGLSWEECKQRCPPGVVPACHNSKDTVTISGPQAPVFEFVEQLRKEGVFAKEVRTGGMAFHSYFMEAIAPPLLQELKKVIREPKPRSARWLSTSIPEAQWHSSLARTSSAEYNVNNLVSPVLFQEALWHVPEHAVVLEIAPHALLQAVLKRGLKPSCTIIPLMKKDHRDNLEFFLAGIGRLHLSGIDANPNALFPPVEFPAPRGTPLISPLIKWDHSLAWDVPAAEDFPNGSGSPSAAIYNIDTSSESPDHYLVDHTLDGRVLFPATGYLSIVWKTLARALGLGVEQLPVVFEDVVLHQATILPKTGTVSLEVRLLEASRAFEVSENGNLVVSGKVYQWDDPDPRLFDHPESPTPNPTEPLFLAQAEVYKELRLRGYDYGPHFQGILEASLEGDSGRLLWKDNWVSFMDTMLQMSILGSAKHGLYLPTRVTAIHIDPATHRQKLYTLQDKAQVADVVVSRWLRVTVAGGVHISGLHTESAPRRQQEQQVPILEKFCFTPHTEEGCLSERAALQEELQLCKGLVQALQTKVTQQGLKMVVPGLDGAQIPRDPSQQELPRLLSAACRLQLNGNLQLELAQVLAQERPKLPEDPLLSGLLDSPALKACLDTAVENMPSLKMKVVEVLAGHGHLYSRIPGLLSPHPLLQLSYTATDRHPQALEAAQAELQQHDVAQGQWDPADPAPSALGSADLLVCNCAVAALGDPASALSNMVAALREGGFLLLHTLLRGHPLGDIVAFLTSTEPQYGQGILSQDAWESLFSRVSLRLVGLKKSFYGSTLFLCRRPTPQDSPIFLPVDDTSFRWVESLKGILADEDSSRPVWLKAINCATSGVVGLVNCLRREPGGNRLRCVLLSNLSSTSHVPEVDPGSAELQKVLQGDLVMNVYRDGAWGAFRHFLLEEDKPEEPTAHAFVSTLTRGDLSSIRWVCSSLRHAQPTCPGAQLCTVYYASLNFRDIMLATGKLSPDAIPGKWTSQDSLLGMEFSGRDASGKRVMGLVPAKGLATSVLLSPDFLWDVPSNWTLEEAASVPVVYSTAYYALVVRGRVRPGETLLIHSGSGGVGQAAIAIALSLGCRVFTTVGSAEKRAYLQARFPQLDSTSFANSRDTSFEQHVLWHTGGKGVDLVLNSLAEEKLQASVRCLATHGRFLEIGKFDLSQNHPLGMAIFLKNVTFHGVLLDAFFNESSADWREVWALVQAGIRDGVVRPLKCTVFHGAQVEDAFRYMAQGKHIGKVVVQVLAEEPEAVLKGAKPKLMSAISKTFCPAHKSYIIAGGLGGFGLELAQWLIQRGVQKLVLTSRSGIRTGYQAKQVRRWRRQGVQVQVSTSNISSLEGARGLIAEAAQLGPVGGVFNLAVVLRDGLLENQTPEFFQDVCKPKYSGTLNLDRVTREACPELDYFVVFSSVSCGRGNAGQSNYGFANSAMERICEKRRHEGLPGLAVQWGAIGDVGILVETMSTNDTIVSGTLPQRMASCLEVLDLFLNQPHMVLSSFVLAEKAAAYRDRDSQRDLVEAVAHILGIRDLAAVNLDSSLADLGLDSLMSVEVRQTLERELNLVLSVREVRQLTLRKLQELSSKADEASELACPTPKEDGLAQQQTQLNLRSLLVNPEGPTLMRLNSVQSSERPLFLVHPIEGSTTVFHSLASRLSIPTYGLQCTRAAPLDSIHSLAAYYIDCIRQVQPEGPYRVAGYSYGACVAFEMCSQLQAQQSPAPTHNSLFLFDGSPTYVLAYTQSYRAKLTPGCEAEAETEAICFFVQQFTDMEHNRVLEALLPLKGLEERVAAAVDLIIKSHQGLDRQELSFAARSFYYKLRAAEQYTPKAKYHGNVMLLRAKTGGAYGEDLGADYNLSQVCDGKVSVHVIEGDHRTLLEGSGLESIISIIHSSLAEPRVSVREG
Large T antigen, sequence (P03070 whole entry): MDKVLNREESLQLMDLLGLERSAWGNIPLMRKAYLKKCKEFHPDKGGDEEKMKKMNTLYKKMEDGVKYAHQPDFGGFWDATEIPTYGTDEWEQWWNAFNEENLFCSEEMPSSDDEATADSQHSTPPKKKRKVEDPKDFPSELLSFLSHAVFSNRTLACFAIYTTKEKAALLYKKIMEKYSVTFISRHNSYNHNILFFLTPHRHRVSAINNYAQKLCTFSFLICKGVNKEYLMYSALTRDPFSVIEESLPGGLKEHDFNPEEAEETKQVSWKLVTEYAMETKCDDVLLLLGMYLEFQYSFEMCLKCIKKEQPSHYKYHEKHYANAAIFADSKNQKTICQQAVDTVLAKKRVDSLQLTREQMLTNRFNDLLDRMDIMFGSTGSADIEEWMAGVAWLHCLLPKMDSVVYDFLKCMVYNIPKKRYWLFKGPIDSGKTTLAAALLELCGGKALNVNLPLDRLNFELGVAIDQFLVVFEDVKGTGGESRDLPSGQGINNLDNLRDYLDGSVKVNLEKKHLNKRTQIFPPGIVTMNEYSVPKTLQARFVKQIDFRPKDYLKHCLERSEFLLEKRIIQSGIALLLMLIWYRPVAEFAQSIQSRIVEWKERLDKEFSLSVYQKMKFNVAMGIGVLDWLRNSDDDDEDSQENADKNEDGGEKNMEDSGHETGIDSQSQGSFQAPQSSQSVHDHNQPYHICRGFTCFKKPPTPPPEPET

Compound: Cc1cc(Oc2ccc(C#N)cc2)nc(NCc2ccccc2)n1
- AC50 [1]: > 70 µM (inactive)
- AC50 [2]: 9.81 µM (active)
- AC50 [3]: 5.62 µM (active)

Compound: O=C(N(Cc1ccccc1)c1ccccn1)C12CC3CC(CC(C3)C1)C2
- AC50 [1]: 2.99 µM (active)
- AC50 [2]: 6.03 µM (active)
- AC50 [4]: 1.62 µM (active)
- AC50 [3]: 2.19 µM (active)

Compound: CCOc1ccc2nc(SC3CC(=O)N(c4ccc(C)cc4)C3=O)sc2c1 (centres undefined)
- AC50 [5]: 15.6 µM (active)

Compound: Cc1cc([N+](=O)[O-])cc2c1NC(=O)C2(O)N1CCOCC1 (centres undefined)
- AC50 [6]: 15.7 µM (active)

Compound: CNCc1ccc(OCc2ccccc2)c(OC)c1
- AC50 [6]: > 20 µM (inactive)

Compound: CC(NC(=O)c1cc([N+](=O)[O-])cc([N+](=O)[O-])c1)c1ccc(-n2ccnc2)cc1 (centres undefined)
- IC50 [7]: 10.1 µM (active)
- IC50 [8]: 6.68 µM (active)
- IC50 [9]: 1.43 µM (active)

Compound: CCc1ccc(C2CC(=O)N3CN(c4ccccc4)CSC3=C2C#N)cc1 (centres undefined)
- IC50 [10]: 70.1 µM (active)

Compound: CNCc1ccccc1OCc1ccc(F)cc1
- AC50 [6]: > 20 µM (inactive)

Compound: Cc1oc(-c2ccccc2F)nc1CN1CCC(C(=O)NCCC2=CCCCC2)CC1
- AC50 [2]: 1.28 µM (active)
- AC50 [4]: 5.29 µM (active)
- AC50 [3]: 4.91 µM (active)

Compound: O=C(c1ccco1)N1CCCC(Nc2ccc3c(c2)OCCO3)C1 (centres undefined)
- EC50 [11]: 8.81 µM (active)
- IC50 [10]: 29.3 µM (active)
- EC50 [12]: 37.7 µM (active)
- EC50 [13]: 9.98 µM (active)

Compound: CCN(CC)CCSc1nc2ccccc2c(=S)n1-c1ccccc1
- AC50 [6]: > 20 µM (inactive)

Compound: COc1ccc([C@H]2/C=C\CN(C(=O)C3CC3)[C@@H](C)C(=O)N2Cc2ccc(F)cc2)cc1
- AC50 [1]: 7.85 µM (active)
- AC50 [2]: 4.99 µM (active)
- AC50 [4]: 4.42 µM (active)
- AC50 [3]: 0.488 µM (active)

Compound: CCN1Cc2c(/C=C/c3ccccc3)nc3ccc(OC)cc3c2N(c2cccc(Cl)c2)C1
- IC50 [7]: 2.35 µM (active)
- IC50 [8]: 3.61 µM (active)
- AC50 [14]: > 380 µM (inactive)
- EC50 [15]: 17.6 µM (active)

Compound: COc1ccc(S(=O)(=O)Nc2ccc3c(c2)CC(=O)N([C@@H](C)CO)C[C@H](C)[C@H](CN(C)S(=O)(=O)c2ccc(F)cc2)O3)cc1
- AC50 [2]: 18.6 µM (active)
- AC50 [4]: 10 µM (active)
- AC50 [3]: 11.4 µM (active)

Compound: COc1ccc(/N=C/c2c(O)cc(C)oc2=O)cc1
- IC50 [10]: 7.84 µM (active)
- IC50 [16]: 85.2 µM (active)

Compound: COc1cc(/C=N/n2nnnc2N)ccc1O
- IC50 [10]: 4.83 µM (active)
- IC50 [16]: 16.9 µM (active)
- AC50 [17]: 1.2 µM (active)
